In ChEMBL document CHEMBL3885861, “Open TG-GATES”:

Organism: Rattus norvegicus
Assay: Open TG-GATES - Regimen: Daily Repeat
Type: toxicity, organism-based, Sprague-Dawley
Set-up: regimen Daily Repeat, gender Male, age 6 weeks
Settings: in vivo, po, 1000 mg/kg, route gavage, dose level High; for APTT / Bas / Eos / Fbg / Hb / Ht / Lym / MCH / MCHC / MCV / Mono / Neu / PT / Plat / RBC / Ret / WBC: tissue Blood; for KIDNEY_L / KIDNEY_R / KIDNEY_TOTAL: tissue Kidney; for LIVER: tissue Liver; for A/G / ALP / ALT / AST / BUN / CRE / Ca / Cl / DBIL / GLC / IP / K / LDH / Na / PL / RALB / TBIL / TC / TG / TP / gamma-GTP: tissue Plasma

O=C(N[C@H](CO)[C@H](O)c1ccc([N+](=O)[O-])cc1)C(Cl)Cl [CHLORAMPHENICOL]
TERMINAL_BW (72 h, time 3 day): 243.9 g | APTT (72 h, time 3 day): 17 s | Bas (72 h, time 3 day): 0% | Eos (72 h, time 3 day): 1.4% | Fbg (72 h, time 3 day): 313.4 mg/dL | Hb (72 h, time 3 day): 13.3 g/dL | Ht (72 h, time 3 day): 40.7% | Lym (72 h, time 3 day): 87.8% | MCH (72 h, time 3 day): 21.1 pg | MCHC (72 h, time 3 day): 32.7% | MCV (72 h, time 3 day): 64.6 fL | Mono (72 h, time 3 day): 3.2% | Neu (72 h, time 3 day): 7% | PT (72 h, time 3 day): 14.6 s | Plat (72 h, time 3 day): 109.7 x10_4/uL | RBC (72 h, time 3 day): 630.6 x10_4/ul | Ret (72 h, time 3 day): 2.3% | WBC (72 h, time 3 day): 63.9 x10_2/uL | KIDNEY_L (72 h, time 3 day): 1.1 g | KIDNEY_R (72 h, time 3 day): 1.1 g | KIDNEY_TOTAL (72 h, time 3 day): 2.2 g | LIVER (72 h, time 3 day): 13.2 g | A/G (72 h, time 3 day): 0.9 | ALP (72 h, time 3 day): 1258.6 IU/L | ALT (72 h, time 3 day): 41 IU/L | AST (72 h, time 3 day): 75 IU/L | BUN (72 h, time 3 day): 16.6 mg/dL | CRE (72 h, time 3 day): 0.2 mg/dL | Ca (72 h, time 3 day): 10.5 mg/dL | Cl (72 h, time 3 day): 106.8 meq/L | DBIL (72 h, time 3 day): 0.012 mg/dL | GLC (72 h, time 3 day): 168.4 mg/dL | IP (72 h, time 3 day): 6.2 mg/dL | K (72 h, time 3 day): 4.3 meq/L | LDH (72 h, time 3 day): 85.6 IU/L | Na (72 h, time 3 day): 141.6 meq/L | PL (72 h, time 3 day): 138.6 mg/dL | RALB (72 h, time 3 day): 2.4 g/dL | TBIL (72 h, time 3 day): 0.05 mg/dL | TC (72 h, time 3 day): 72.6 mg/dL | TG (72 h, time 3 day): 82.6 mg/dL | TP (72 h, time 3 day): 5.2 g/dL | gamma-GTP (72 h, time 3 day): 1 IU/L | TERMINAL_BW ([…], time 7 day): 275.6 g | TERMINAL_BW ([…], time 14 day): 327.3 g | TERMINAL_BW ([…], time 28 day): 381.6 g | APTT ([…], time 7 day): 16.3 s | Bas ([…], time 7 day): 0% | Eos ([…], time 7 day): 1% | Fbg ([…], time 7 day): 339.2 mg/dL | Hb ([…], time 7 day): 13 g/dL | Ht ([…], time 7 day): 40% | Lym ([…], time 7 day): 84.4% | MCH ([…], time 7 day): 20.6 pg | MCHC ([…], time 7 day): 32.5% | MCV ([…], time 7 day): 63.3 fL | Mono ([…], time 7 day): 2.4% | Neu ([…], time 7 day): 11.4% | PT ([…], time 7 day): 14.8 s | Plat ([…], time 7 day): 126.1 x10_4/uL | RBC ([…], time 7 day): 631.6 x10_4/ul | Ret ([…], time 7 day): 4.9% | WBC ([…], time 7 day): 79.2 x10_2/uL | APTT ([…], time 14 day): 15.6 s | Bas ([…], time 14 day): 0% | Eos ([…], time 14 day): 1% | Fbg ([…], time 14 day): 325.6 mg/dL | Hb ([…], time 14 day): 13.9 g/dL | Ht ([…], time 14 day): 42.9% | Lym ([…], time 14 day): 87.2% | MCH ([…], time 14 day): 20.6 pg | MCHC ([…], time 14 day): 32.3% | MCV ([…], time 14 day): 63.6 fL | Mono ([…], time 14 day): 2.8% | Neu ([…], time 14 day): 8.4% | PT ([…], time 14 day): 14.9 s | Plat ([…], time 14 day): 116.9 x10_4/uL | RBC ([…], time 14 day): 675.6 x10_4/ul | Ret ([…], time 14 day): 4.4% | WBC ([…], time 14 day): 86.3 x10_2/uL | APTT ([…], time 28 day): 16.3 s | Bas ([…], time 28 day): 0% | Eos ([…], time 28 day): 1.2% | Fbg ([…], time 28 day): 303 mg/dL | Hb ([…], time 28 day): 14.6 g/dL | Ht ([…], time 28 day): 42.8% | Lym ([…], time 28 day): 87.4% | MCH ([…], time 28 day): 19.6 pg | MCHC ([…], time 28 day): 34.1% | MCV ([…], time 28 day): 57.3 fL | Mono ([…], time 28 day): 1.6% | Neu ([…], time 28 day): 9.2% | PT ([…], time 28 day): 15.5 s | Plat ([…], time 28 day): 106.7 x10_4/uL | RBC ([…], time 28 day): 746.4 x10_4/ul | Ret ([…], time 28 day): 1.7% | WBC ([…], time 28 day): 78.6 x10_2/uL | KIDNEY_L ([…], time 7 day): 1.2 g | KIDNEY_R ([…], time 7 day): 1.2 g | KIDNEY_TOTAL ([…], time 7 day): 2.4 g | KIDNEY_L ([…], time 14 day): 1.4 g | KIDNEY_R ([…], time 14 day): 1.3 g | KIDNEY_TOTAL ([…], time 14 day): 2.7 g | KIDNEY_L ([…], time 28 day): 1.6 g | KIDNEY_R ([…], time 28 day): 1.6 g | KIDNEY_TOTAL ([…], time 28 day): 3.2 g | LIVER ([…], time 7 day): 15.2 g | LIVER ([…], time 14 day): 18.1 g | LIVER ([…], time 28 day): 20.9 g | A/G ([…], time 7 day): 0.9 | ALP ([…], time 7 day): 1416.6 IU/L | ALT ([…], time 7 day): 50.6 IU/L | AST ([…], time 7 day): 77.4 IU/L | BUN ([…], time 7 day): 15.8 mg/dL | CRE ([…], time 7 day): 0.2 mg/dL | Ca ([…], time 7 day): 11.2 mg/dL | Cl ([…], time 7 day): 105.4 meq/L | DBIL ([…], time 7 day): 0.012 mg/dL | GLC ([…], time 7 day): 179.4 mg/dL | IP ([…], time 7 day): 8.8 mg/dL | K ([…], time 7 day): 4.1 meq/L | LDH ([…], time 7 day): 92.8 IU/L | Na ([…], time 7 day): 143.6 meq/L | PL ([…], time 7 day): 136.2 mg/dL | RALB ([…], time 7 day): 2.7 g/dL | TBIL ([…], time 7 day): 0.052 mg/dL | TC ([…], time 7 day): 67.8 mg/dL | TG ([…], time 7 day): 71.8 mg/dL | TP ([…], time 7 day): 5.8 g/dL | gamma-GTP ([…], time 7 day): 1 IU/L | A/G ([…], time 14 day): 0.9 | ALP ([…], time 14 day): 1573.2 IU/L | ALT ([…], time 14 day): 50.6 IU/L | AST ([…], time 14 day): 72.6 IU/L | BUN ([…], time 14 day): 17.8 mg/dL | CRE ([…], time 14 day): 0.2 mg/dL | Ca ([…], time 14 day): 11 mg/dL | Cl ([…], time 14 day): 105.6 meq/L | DBIL ([…], time 14 day): 0.016 mg/dL | GLC ([…], time 14 day): 179.2 mg/dL | IP ([…], time 14 day): 7.2 mg/dL | K ([…], time 14 day): 4.1 meq/L | LDH ([…], time 14 day): 53.6 IU/L | Na ([…], time 14 day): 144 meq/L | PL ([…], time 14 day): 149.8 mg/dL | RALB ([…], time 14 day): 2.7 g/dL | TBIL ([…], time 14 day): 0.046 mg/dL | TC ([…], time 14 day): 71.4 mg/dL | TG ([…], time 14 day): 79.2 mg/dL | TP ([…], time 14 day): 5.7 g/dL | gamma-GTP ([…], time 14 day): 1 IU/L | A/G ([…], time 28 day): 0.9 | ALP ([…], time 28 day): 936.8 IU/L | ALT ([…], time 28 day): 43.6 IU/L | AST ([…], time 28 day): 72.8 IU/L | BUN ([…], time 28 day): 17 mg/dL | CRE ([…], time 28 day): 0.2 mg/dL | Ca ([…], time 28 day): 10.4 mg/dL | Cl ([…], time 28 day): 105.8 meq/L | DBIL ([…], time 28 day): 0.016 mg/dL | GLC ([…], time 28 day): 164.4 mg/dL | IP ([…], time 28 day): 6.3 mg/dL | K ([…], time 28 day): 3.6 meq/L | LDH ([…], time 28 day): 53.4 IU/L | Na ([…], time 28 day): 145.2 meq/L | PL ([…], time 28 day): 131.6 mg/dL | RALB ([…], time 28 day): 2.6 g/dL | TBIL ([…], time 28 day): 0.06 mg/dL | TC ([…], time 28 day): 57.8 mg/dL | TG ([…], time 28 day): 74.8 mg/dL | TP ([…], time 28 day): 5.6 g/dL | gamma-GTP ([…], time 28 day): 1 IU/L
